Data taken from publication PMC5007854, “β-Nitrostyrenes as Potential Anti-leishmanial Agents” (Frontiers in Microbiology, 2016).
Converted amounts (≈) assume the structure as drawn.

Experiments:
[1] = test system: Pseudomonas aeruginosa ATCC 27853; test: Broth microdilution antibacterial susceptibility (MIC/MBC); assay type: cell-based; conditions: Pseudomonas aeruginosa; for MIC: ATCC27853, 24 h, broth microdilution, 35°C, 24 h, read-out: MIC, Pa ATCC 27853; for MBC: ATCC27853, ≥99.9% reduction of original inoculum, read-out: MBC, Pa ATCC 27853
Source text: (§1) One reference each of the following species was used for their in vitro susceptibility to β-nitrostyrene in this study: Staphylococcus aureus ATCC 29213, Staphylococcus epidermidis ATCC 14990, Escherichia coli ATCC 25922, Pseudomonas aeruginosa ATCC 27853, Candida albicans ATCC 90028, Candida glabrata ATCC 90030, Aspergillus fumigatus ATCC 16424 and Aspergillus niger ATCC 16404. These strains were procured from the American Type Culture Collection (ATCC, Manassas, VA, USA).
(§2) The antibacterial and antifungal activities of the β-nitrostyrenes were performed by broth microdilution methods as per the guidelines of Clinical and Laboratory Standard Institute (Wayne, [1998], [2008a],[b],[c]) by using Mueller-Hinton broth (MHB; Becton-Dickinson, Cockeysville, MD, USA) supplemented with calcium (25 mg/L) and magnesium (12.5 mg/L) for bacterial strains while as RPMI 1640 medium with L-glutamine and without sodium bicarbonate, buffered to pH 7.0 with 0.165 M 3-(N-morpholino) propanesulfonic acid (MOPS; both from Sigma) was used for fungal strains. Stock solutions were prepared in 100% dimethyl sulfoxide (DMSO; Sigma; distilled water was used for ciprofloxacin), with a final DMSO concentration of 1% (vol. per vol.) and two-fold serial dilutions were prepared in media in amounts of 100 μL per well in 96-well U-bottom microtiter plates (Tarsons, Kolkata, India) to yield twice the final concentration required for testing, which ranged from 64 to 0.12 μg/mL for β-nitrostyrenes and 16 to 0.03 μg/mL for ciprofloxacin as well as amphotericin B. Stock inoculum suspensions of the bacteria, Candida species and Aspergillus species were prepared in sterile normal saline (0.85%) containing 0.05% polysorbate 20 (NST) from overnight (3 to 5-day old for Aspergillus species) strains grown on Trypticase soy agar (TSA; Becton-Dickinson) and potato dextrose agar (Difco Laboratories, Detroit, MI, USA) respectively at 35°C. Inocula were verified for each assay by plating onto agar plates for colony enumeration. These suspensions were further diluted in the respective test medium and a 100 μl volume of this diluted inoculum was added to each well of the plate, resulting in a final inoculum concentration of approximately 5 × 10^5 CFU/mL for bacter1ia, (Wayne, [2008a]) approximately 2.5 × 10^4 CFU/ml for Candida species (Pfaller et al., [2004]) while as 0.4 × 10^4 to 5 × 10^4 CFU/mL for Aspergillus species (Wayne, [2008c]). Untreated growth control, vehicle control (DMSO) and sterility control wells were included for each isolate tested. Ciprofloxacin and amphotericin B served as the standard drug controls for bacterial and fungal strains, respectively. The microtiter plates were incubated at 35°C for 24 h for bacterial strains and 48 h for fungal strains. The plates were read visually and the minimum inhibitory concentration (MIC) was defined as the lowest concentration of test sample that prevented visible growth with respect to the growth control.
(§3) The minimum bactericidal concentration (MBC) and minimum fungicidal concentration (MFC) were determined by plating 100 μl volumes on agar plates from the wells showing no visible growth (clear MIC well). The plates were incubated as described above in MIC measurements. […] All experiments were conducted twice in duplicates on separate occasions with freshly prepared inoculums and stock solutions.

[2] = test system: Staphylococcus epidermidis ATCC 14990; test: as above; assay type: cell-based; conditions: Staphylococcus epidermidis; for MIC: ATCC14990, 24 h, broth microdilution, 35°C, 24 h, read-out: MIC, Se ATCC 14990; for MBC: ATCC14990, ≥99.9% reduction of original inoculum, read-out: MBC, Se ATCC 14990
Source text: as §1, §2, §3

[3] = test system: Staphylococcus aureus ATCC 29213; test: as above; assay type: cell-based; conditions: Staphylococcus aureus; for MIC: ATCC29213, 24 h, broth microdilution, 35°C, 24 h, read-out: MIC, Sa ATCC 29213; for MBC: ATCC29213, ≥99.9% reduction of original inoculum, read-out: MBC, Sa ATCC 29213
Source text: as §1, §2, §3

[4] = test system: Escherichia coli ATCC 25922; test: as above; assay type: cell-based; conditions: Escherichia coli; for MIC: ATCC25922, 24 h, broth microdilution, 35°C, 24 h, read-out: MIC, Ec ATCC 25922; for MBC: ATCC25922, ≥99.9% reduction of original inoculum, read-out: MBC, Ec ATCC 25922
Source text: as §1, §2, §3

[5] = test system: L. donovani promastigotes; test: Anti-leishmanial screening at 100 μM, parasite viability by microscopy; assay type: cell-based, Leishmania donovani; conditions: L. donovani promastigotes
Description: L. donovani parasites (MHOM/IN/83/AG83) were maintained in vivo in BALB/c mice. Promastigotes were routinely cultured at 22°C in medium M199 supplemented with 10% heat inactivated fetal bovine serum (FBS, HiMedia Laboratories, Mumbai, India), penicillin 100 (IU/ml), streptomycin (100 μg/ml). Log phase promastigotes were sub-cultured every 72–96 h, the inoculum being 2 × 10^6 cells/ml (Afrin et al., [2002]).
Nitrostyrine series were screened for their antileishmanial activity against L. donovani promastigotes in vitro. Promastigotes of L. donovani (2 × 10^6 cells/mL) in M199 medium were incubated at 22°C for 72 h with each compound at a concentration of 100 μM. Amphotericin B (AmB) served as reference drug, 0.2% DMSO was used as solvent control. Parasites with media alone were taken as control. Parasite viability was determined microscopically after 72 h (Islamuddin et al., [2014b]).

[6] = test system: Aspergillus fumigatus ATCC 16424; test: Broth microdilution antifungal susceptibility (MIC/MFC); assay type: cell-based; conditions: Aspergillus fumigatus; for MIC: ATCC16424, 48 h, broth microdilution, 35°C, 48 h, read-out: MIC, Af ATCC 16424; for MFC: ATCC16424, ≥99.9% reduction of original inoculum, read-out: MFC, Af ATCC 16424
Source text: as §1, §2, §3

[7] = test system: Candida glabrata ATCC 90030; test: as above; assay type: cell-based; conditions: Nakaseomyces glabratus; for MIC: ATCC90030, 48 h, broth microdilution, 35°C, 48 h, read-out: MIC, Cg ATCC 90030; for MFC: ATCC90030, ≥99.9% reduction of original inoculum, read-out: MFC, Cg ATCC 90030
Source text: as §1, §2, §3

[8] = test system: Candida albicans ATCC 90028; test: as above; assay type: cell-based; conditions: Candida albicans; for MIC: ATCC90028, 48 h, broth microdilution, 35°C, 48 h, read-out: MIC, Ca ATCC 90028; for MFC: ATCC90028, ≥99.9% reduction of original inoculum, read-out: MFC, Ca ATCC 90028
Source text: as §1, §2, §3

[9] = test system: Aspergillus niger ATCC 16404; test: as above; assay type: cell-based; conditions: Aspergillus niger; for MIC: ATCC16404, 48 h, broth microdilution, 35°C, 48 h, read-out: MIC, An ATCC 16404; for MFC: ATCC16404, ≥99.9% reduction of original inoculum, read-out: MFC, An ATCC 16404
Source text: as §1, §2, §3

SMILES	MIC [1]	MBC [1]	MIC [2]	MBC [2]	MIC [3]	MBC [3]	MIC [4]	MBC [4]	Anti-leishmanial activity, in words (SAR discussion) [5]	melting point	MIC [6]	MFC [6]	MIC [7]	MFC [7]	MIC [8]	MFC [8]	MIC [9]	MFC [9]
CC/C(=C(/C)c1cccc(O)c1)[N+](=O)[O-] [Compound 26, 3-((E)-3-nitropent-2-en-2-yl)phenol]	> 64 µg/mL	> 64 µg/mL	8 µg/mL (≈ 38.6 µM)	8 µg/mL (≈ 38.6 µM)	8 µg/mL (≈ 38.6 µM)	16 µg/mL (≈ 77.2 µM)	> 64 µg/mL	> 64 µg/mL	loss of activity	138 to 140 °C	> 64 µg/mL	> 64 µg/mL	> 64 µg/mL	> 64 µg/mL	> 64 µg/mL	> 64 µg/mL	64 µg/mL (≈ 309 µM)	> 64 µg/mL
CCOc1cccc(/C=C/[N+](=O)[O-])c1O [Compound 27, 2-ethoxy-6-((E)-2-nitrovinyl) phenol]	> 64 µg/mL	> 64 µg/mL	16 µg/mL (≈ 76.5 µM)	16 µg/mL (≈ 76.5 µM)	32 µg/mL (≈ 153 µM)	32 µg/mL (≈ 153 µM)	> 64 µg/mL	> 64 µg/mL	inactive	128 to 130 °C	16 µg/mL (≈ 76.5 µM)	16 µg/mL (≈ 76.5 µM)	16 µg/mL (≈ 76.5 µM)	16 µg/mL (≈ 76.5 µM)	32 µg/mL (≈ 153 µM)	32 µg/mL (≈ 153 µM)	8 µg/mL (≈ 38.2 µM)	8 µg/mL (≈ 38.2 µM)
